Results published in patent EP4122499A1, “FIBROBLAST ACTIVATION PROTEIN INHIBITORS AND USE THEREOF” (3B Pharmaceuticals GmbH, priority 2021, dated 2023).

Legend:
Format in all cases: biochemical
Recombinant human DPP4 = molecular target: T1, Recombinant human DPP4 (Homo sapiens, UniProt P27487); assay: DPP4 protease activity assay; details: 20 µM GP-AMC substrate; for IC50: read-out: pIC50 (DPP4) (converted)
T1 construct: purchased R&D systems 9168-SE
Experimental: (§1) The PREP activity assay was performed using the FACS buffer (PBS including 1% FBS, Sigma-Aldrich, Cat# D8537). […] The DPP4 activity assay was performed in DPP assay buffer (25 mM Tris, pH 8.0).
(§2) Four parameter logistic (4PL) curve fitting and pIC50 calculations were performed using ActivityBase software.

recombinant human PREP = molecular target: T2, recombinant human PREP (Homo sapiens, UniProt P48147); assay: PREP protease activity assay; details: 50 µM Z-GP-AMC substrate
T2 construct: purchased R&D systems 4308-SE
T2 sequence (P48147 1-710): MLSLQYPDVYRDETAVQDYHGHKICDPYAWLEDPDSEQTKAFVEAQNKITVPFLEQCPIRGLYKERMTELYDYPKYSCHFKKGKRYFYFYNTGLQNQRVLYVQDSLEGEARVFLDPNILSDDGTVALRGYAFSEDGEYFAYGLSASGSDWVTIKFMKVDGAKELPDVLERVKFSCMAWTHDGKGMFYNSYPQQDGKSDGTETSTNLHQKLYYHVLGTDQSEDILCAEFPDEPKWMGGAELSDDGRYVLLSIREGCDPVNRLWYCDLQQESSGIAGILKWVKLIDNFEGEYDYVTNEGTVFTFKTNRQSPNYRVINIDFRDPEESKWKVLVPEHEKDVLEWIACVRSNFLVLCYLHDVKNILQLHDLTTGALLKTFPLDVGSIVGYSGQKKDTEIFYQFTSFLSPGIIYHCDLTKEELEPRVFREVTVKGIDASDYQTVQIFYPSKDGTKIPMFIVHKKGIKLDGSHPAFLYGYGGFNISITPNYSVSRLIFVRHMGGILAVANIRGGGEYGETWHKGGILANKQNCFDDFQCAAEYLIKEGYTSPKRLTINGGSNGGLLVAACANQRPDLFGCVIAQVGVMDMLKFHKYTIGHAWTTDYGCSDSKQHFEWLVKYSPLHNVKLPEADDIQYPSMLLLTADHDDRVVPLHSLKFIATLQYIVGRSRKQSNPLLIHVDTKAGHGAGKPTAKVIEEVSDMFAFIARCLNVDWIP
Experimental: as §1, §2

Recombinant mouse FAP = molecular target: T3, Recombinant mouse FAP (Mus musculus, UniProt P97321); assay: FRET-based FAP protease activity assay (mouse); details: FRET-peptide substrate, 37°C; for IC50: read-out: pIC50 (mouseFAP) (converted)
T3 construct: purchased R&D systems 8647-SE
T3 sequence (P97321 1-761): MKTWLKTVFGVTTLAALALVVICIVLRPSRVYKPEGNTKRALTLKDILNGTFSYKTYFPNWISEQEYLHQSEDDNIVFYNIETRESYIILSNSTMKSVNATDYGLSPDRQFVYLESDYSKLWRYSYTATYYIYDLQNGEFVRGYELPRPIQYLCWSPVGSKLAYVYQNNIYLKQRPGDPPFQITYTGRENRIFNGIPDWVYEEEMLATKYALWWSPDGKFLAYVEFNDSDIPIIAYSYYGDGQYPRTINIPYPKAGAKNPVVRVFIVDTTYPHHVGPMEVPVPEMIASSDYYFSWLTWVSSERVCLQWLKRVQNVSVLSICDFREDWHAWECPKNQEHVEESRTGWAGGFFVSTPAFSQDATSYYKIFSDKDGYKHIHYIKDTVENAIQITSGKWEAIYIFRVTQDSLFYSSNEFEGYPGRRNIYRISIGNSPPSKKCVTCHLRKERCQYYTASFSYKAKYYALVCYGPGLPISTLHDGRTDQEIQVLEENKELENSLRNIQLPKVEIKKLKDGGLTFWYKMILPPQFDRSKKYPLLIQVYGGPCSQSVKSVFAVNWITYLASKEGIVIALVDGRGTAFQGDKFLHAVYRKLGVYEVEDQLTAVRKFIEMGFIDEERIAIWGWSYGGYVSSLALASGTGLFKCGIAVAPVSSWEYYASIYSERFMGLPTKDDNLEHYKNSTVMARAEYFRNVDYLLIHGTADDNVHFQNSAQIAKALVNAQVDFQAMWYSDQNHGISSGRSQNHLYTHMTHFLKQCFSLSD
Experimental: In order to determine the inhibitory activity a FRET-based FAP protease activity assay was established.
25 µL of a 30 µM substrate solution, diluted in assay buffer, was added. […] Four parameter logistic (4PL) curve fitting and pIC50 calculations were performed using ActivityBase software.

T1 sequence (P27487 whole entry): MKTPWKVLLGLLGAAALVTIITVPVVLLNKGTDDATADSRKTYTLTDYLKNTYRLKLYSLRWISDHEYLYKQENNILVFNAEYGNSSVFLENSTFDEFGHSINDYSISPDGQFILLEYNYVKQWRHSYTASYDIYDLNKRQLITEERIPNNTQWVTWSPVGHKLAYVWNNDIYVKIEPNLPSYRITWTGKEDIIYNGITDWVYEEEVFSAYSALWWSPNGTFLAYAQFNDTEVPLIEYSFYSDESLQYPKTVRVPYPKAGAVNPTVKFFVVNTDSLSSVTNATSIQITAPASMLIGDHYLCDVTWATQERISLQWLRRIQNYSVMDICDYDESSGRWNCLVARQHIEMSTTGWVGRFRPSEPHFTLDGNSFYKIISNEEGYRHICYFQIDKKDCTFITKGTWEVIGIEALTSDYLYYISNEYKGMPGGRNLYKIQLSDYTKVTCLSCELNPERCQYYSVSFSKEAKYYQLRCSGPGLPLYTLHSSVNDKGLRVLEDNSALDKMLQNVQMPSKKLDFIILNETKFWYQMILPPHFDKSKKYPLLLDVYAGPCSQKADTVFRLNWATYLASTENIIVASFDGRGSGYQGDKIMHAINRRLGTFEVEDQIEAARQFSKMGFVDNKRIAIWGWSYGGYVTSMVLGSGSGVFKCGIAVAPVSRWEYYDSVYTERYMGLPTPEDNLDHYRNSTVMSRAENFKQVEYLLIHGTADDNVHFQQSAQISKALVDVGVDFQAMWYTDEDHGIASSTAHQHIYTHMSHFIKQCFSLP

Structure (SMILES)	IC50 (Recombinant human DPP4) [nM]	IC50 (recombinant human PREP) [nM]	IC50 (Recombinant mouse FAP) [nM]	pIC50 (mouseFAP) (Recombinant mouse FAP)	pIC50 (DPP4) (Recombinant human DPP4)	pIC50 (PREP) (recombinant human PREP)
CS(=O)(=O)c1cccc(-c2ccc3nccc(C(=O)NCC(=O)N4CCC[C@H]4C#N)c3c2)c1	> 1000	> 1000				
CS(=O)(=O)c1cccc(-c2ccc3c(C(=O)NCC(=O)N4CCC[C@H]4C#N)ccnc3c2)c1	> 1000	> 1000				
O=C(NCC(=O)N1CCC[C@H]1C(=O)c1nc2ccccc2s1)c1ccnc2ccccc12	> 1000	15.8				
O=C(NCC(=O)N1CCC[C@H]1C(=O)c1nc2ccccc2o1)c1ccnc2ccccc12	> 1000	1	2			
O=C(NCC(=O)N1CCC[C@H]1C(=O)c1nccs1)c1ccnc2ccccc12	> 1000	25.1				
CS(=O)(=O)c1ccc(-c2ccc3nccc(C(=O)NCC(=O)N4CC(F)(F)C[C@H]4C#N)c3c2)cc1	> 1000	> 1000	0.794			
CS(=O)(=O)c1ccc(-c2ccc3nccc(C(=O)NCC(=O)N4CCC[C@H]4C#N)c3c2)cc1	> 1000	> 1000				
O=C(O)CN1CCN(CC(=O)O)CCN(CC(=O)N2CCN(CCCOc3ccc4nccc(C(=O)NCC(=O)N5CC(F)(F)C[C@H]5C(=O)c5nc6ccccc6o5)c4c3)CC2)CCN(CC(=O)O)CC1				8.3	<6	6.7
N#C[C@@H]1CC(F)(F)CN1C(=O)CNC(=O)c1ccnc2ccc(-c3ccc(S(=O)(=O)CCCNC(=O)CN4CCN(CC(=O)O)CCN(CC(=O)O)CCN(CC(=O)O)CC4)cc3)cc12				9	6.7	<6
O=C(O)CN1CCN(CC(=O)O)CCN(CC(=O)NCCCNC(=O)c2ccc(-c3ccc4nccc(C(=O)NCC(=O)N5CCC[C@H]5C(=O)c5nc6ccccc6o5)c4c3)cc2)CCN(CC(=O)O)CC1				8.7	<6	8.2
N#C[C@@H]1CC(F)(F)CN1C(=O)CNC(=O)c1cc[n+]([O-])c2ccc(OCCCN3CCN(C(=O)CN4CCN(CC(=O)O)CCN(CC(=O)O)CCN(CC(=O)O)CC4)CC3)cc12				8.8	<6	
N#C[C@@H]1CC(F)(F)CN1C(=O)CNC(=O)c1ccnc2ccc(-c3ccc(C(=O)NCCCNC(=O)CN4CCN(CC(=O)O)CCN(CC(=O)O)CCN(CC(=O)O)CC4)cc3)cc12				9.2	<6	
N#C[C@@H]1CC(F)(F)CN1C(=O)CNC(=O)c1ccnc2ccc(-c3ccc(C(=O)NCCN4CCN(C(=O)CN5CCN(CC(=O)O)CCN(CC(=O)O)CCN(CC(=O)O)CC5)CC4)cc3)cc12				8.9	<6	<6
CC(C)(C)c1nnc(C(=O)[C@@H]2CCCN2C(=O)CNC(=O)c2ccnc3ccccc23)o1	> 1000	1.26	3.98			
N#C[C@@H]1CC(F)(F)CN1C(=O)CNC(=O)c1ccnc2ccc(-c3ccc(C(=O)NCCCNC(=O)CN4CCN(CC(=O)O)CCN(CC(=O)O)CCN(CC(=O)O)CC4)nc3)cc12				8.8	<6	<6
N#C[C@@H]1CCCN1C(=O)CNC(=O)c1ccnc2ccc(-c3ccc(C(=O)NCCCNC(=O)CN4CCN(CC(=O)O)CCN(CC(=O)O)CCN(CC(=O)O)CC4)cc3)cc12				9	<6	
O=C(O)CN1CCN(CC(=O)O)CCN(CC(=O)NCCCNC(=O)c2ccc(-c3ccc4nccc(C(=O)NCC(=O)N5CCC[C@H]5B(O)O)c4c3)cc2)CCN(CC(=O)O)CC1				8.5	<6	8.2
CS(=O)(=O)c1cccc(-c2ccc3nccc(C(=O)NCC(=O)N4CC(F)(F)C[C@H]4C#N)c3c2)c1 [drawing 288]	794	> 1000	1			
CS(=O)(=O)c1cccc(-c2ccc3c(C(=O)NCC(=O)N4CC(F)(F)C[C@H]4C#N)ccnc3c2)c1 [drawing 289]	> 1000	> 1000	1.26			
CS(=O)(=O)c1ccc(-c2ccc3c(C(=O)NCC(=O)N4CCC[C@H]4C#N)ccnc3c2)cc1 [drawing 290]	> 1000	794				
O=C(NCC(=O)N1CCC[C@H]1C(=O)c1ncco1)c1ccnc2ccccc12 [drawing 297]	> 1000	0.631				
O=C(O)CN1CCN(CC(=O)O)CCN(CC(=O)N2CCN(CCNC(=O)c3cccc(-c4ccc5c(C(=O)NCC(=O)N6CCC[C@H]6C(=O)c6nc7ccccc7o6)ccnc5c4)c3)CC2)CCN(CC(=O)O)CC1 [drawing 352]				8.9	<6	8.4
O=C(O)CN1CCN(CC(=O)O)CCN(CC(=O)N2CCN(CCNC(=O)c3cccc(-c4ccc5nccc(C(=O)NCC(=O)N6CCC[C@H]6C(=O)c6nc7ccccc7o6)c5c4)c3)CC2)CCN(CC(=O)O)CC1 [drawing 353]				8.6	<6	7.8
O=C(O)CN1CCN(CC(=O)O)CCN(CC(=O)N2CCN(CCNC(=O)c3ccc(-c4ccc5nccc(C(=O)NCC(=O)N6CCC[C@H]6C(=O)c6nc7ccccc7o6)c5c4)cc3)CC2)CCN(CC(=O)O)CC1 [drawing 354]				8.1	<6	8.2
O=C(O)CN1CCN(CC(=O)O)CCN(CC(=O)N2CCN(CCNC(=O)c3ccc(-c4ccc5c(C(=O)NCC(=O)N6CCC[C@H]6C(=O)c6nc7ccccc7o6)ccnc5c4)cc3)CC2)CCN(CC(=O)O)CC1 [drawing 355]				8.8	<6	8.7
O=C(O)CN1CCN(CC(=O)O)CCN(CC(=O)N2CCN(CCCOc3ccc4nccc(C(=O)NCC(=O)N5CCC[C@H]5C(=O)c5nc6ccccc6o5)c4c3)CC2)CCN(CC(=O)O)CC1 [drawing 357]				8.5	<6	8.6
O=C(O)CN1CCN(CC(=O)O)CCN(CC(=O)N2CCN(CCCOc3ccc4nccc(C(=O)NCC(=O)N5C[C@@H](F)C[C@H]5C(=O)c5nc6ccccc6o5)c4c3)CC2)CCN(CC(=O)O)CC1 [drawing 358]				8.5	<6	7.8
